Legend:
[1] = Cytotoxicity against paclitaxel resistant human K562-Tax cells assessed as reduction in cell viability measured after 72 hrs by MTS assay; format: functional, cell-based
[2] = Cytotoxicity against human HCT116 p53-null cells assessed as reduction in cell viability measured after 72 hrs by MTS assay; format: functional, cell-based
MRC5 = test: Cytotoxicity against human MRC5 cells assessed as reduction in cell viability measured after 72 hrs by MTS assay; format: cell-based; conditions: MRC5, 72 h
U2OS = test: Cytotoxicity against human U2OS cells assessed as reduction in cell viability measured after 72 hrs by MTS assay; format: functional, cell-based
CEM-DNR = test: Cytotoxicity against daunorubicin resistant human CEM-DNR cells assessed as reduction in cell viability measured after 72 hrs by MTS assay; format: functional, cell-based
HCT-116 = test: Cytotoxicity against human HCT-116 cells assessed as reduction in cell viability measured after 72 hrs by MTS assay; format: functional, cell-based; conditions: HCT-116, 72 h
K562 = test: Cytotoxicity against human K562 cells assessed as reduction in cell viability measured after 72 hrs by MTS assay; format: functional, cell-based; conditions: K562, 72 h
BJ = test: Cytotoxicity against human BJ cells assessed as reduction in cell viability measured after 72 hrs by MTS assay; format: cell-based
CCRF-CEM = test: Cytotoxicity against human CCRF-CEM cells assessed as reduction in cell viability measured after 72 hrs by MTS assay; format: functional, cell-based
A549 = test: Cytotoxicity against human A549 cells assessed as reduction in cell viability measured after 72 hrs by MTS assay; format: functional, cell-based; conditions: A549, 72 h

SMILES	IC50 [1] [µM]	IC50 [2] [µM]	IC50 (MRC5) [µM]	IC50 (U2OS) [µM]	IC50 (CEM-DNR) [µM]	IC50 (HCT-116) [µM]	IC50 (K562) [µM]	IC50 (BJ) [µM]	IC50 (CCRF-CEM) [µM]	IC50 (A549) [µM]
C=C(/C=C/c1ccc(C(F)(F)F)cc1)[C@@H]1CC[C@]2(C(=O)O)CC[C@]3(C)[C@H](CC[C@@H]4[C@@]5(C)CC[C@H](O)C(C)(C)[C@@H]5CC[C@]43C)[C@@H]12	45.6	31.9	42.4	28.2	40.9	40.9	40.5	49.5	21.5	41.4
C=C(/C=C/c1ccccc1[N+](=O)[O-])[C@@H]1CC[C@]2(C(=O)O)CC[C@]3(C)[C@H](CC[C@@H]4[C@@]5(C)CC[C@H](O)C(C)(C)[C@@H]5CC[C@]43C)[C@@H]12	29.8	39.3	> 50	33.1	30.6	34.8	> 50	> 50	23.7	45.2
C=CC(=C)[C@@H]1CC[C@]2(C(=O)O)CC[C@]3(C)[C@H](CC[C@@H]4[C@@]5(C)CC[C@H](O)C(C)(C)[C@@H]5CC[C@]43C)[C@@H]12	26.2	24.3	24.3	24.1	25.1	24.1	15.7	44.6	11.1	23.9
C=C(/C=C/c1ccc(C#N)cc1)[C@@H]1CC[C@]2(C(=O)O)CC[C@]3(C)[C@H](CC[C@@H]4[C@@]5(C)CC[C@H](O)C(C)(C)[C@@H]5CC[C@]43C)[C@@H]12	27.2	43.3	49.7	44.1	27	39.1	> 50	> 50	23.8	> 50
C=C(/C=C/c1ccc(F)cc1)[C@@H]1CC[C@]2(C(=O)O)CC[C@]3(C)[C@H](CC[C@@H]4[C@@]5(C)CC[C@H](O)C(C)(C)[C@@H]5CC[C@]43C)[C@@H]12	29.8	41	38.3	23.9	31.4	35.4	36.2	44.6	4.9	40.6
C=C(/C=C/c1ccccc1I)[C@@H]1CC[C@]2(C(=O)O)CC[C@]3(C)[C@H](CC[C@@H]4[C@@]5(C)CC[C@H](O)C(C)(C)[C@@H]5CC[C@]43C)[C@@H]12	> 50	29.5	29.5	28.5	> 50	29.6	25.1	> 50	20.6	29.7
C=C(/C=C/c1cccc(I)c1)[C@@H]1CC[C@]2(C(=O)O)CC[C@]3(C)[C@H](CC[C@@H]4[C@@]5(C)CC[C@H](O)C(C)(C)[C@@H]5CC[C@]43C)[C@@H]12	48.4	29.5	> 50	28.4	> 50	27.3	25.2	> 50	11.6	38.7
C=C(/C=C/c1ccccn1)[C@@H]1CC[C@]2(C(=O)O)CC[C@]3(C)[C@H](CC[C@@H]4[C@@]5(C)CC[C@H](O)C(C)(C)[C@@H]5CC[C@]43C)[C@@H]12	29.2	> 50	> 50	> 50	27.7	> 50	> 50	> 50	19.7	> 50
C=C(/C=C/c1ccc2ccccc2c1)[C@@H]1CC[C@]2(C(=O)O)CC[C@]3(C)[C@H](CC[C@@H]4[C@@]5(C)CC[C@H](O)C(C)(C)[C@@H]5CC[C@]43C)[C@@H]12	45.8	26.3	43.1	27.2	47	30.2	> 50	> 50	11.8	32.9
C=C(/C=C/c1cccnc1)[C@@H]1CC[C@]2(C(=O)O)CC[C@]3(C)[C@H](CC[C@@H]4[C@@]5(C)CC[C@H](O)C(C)(C)[C@@H]5CC[C@]43C)[C@@H]12	14.2	32.8	> 50	30.9	17.4	30.9	> 50	> 50	11.3	26.2
C=C(/C=C/c1ccccc1Br)[C@@H]1CC[C@]2(C(=O)O)CC[C@]3(C)[C@H](CC[C@@H]4[C@@]5(C)CC[C@H](O)C(C)(C)[C@@H]5CC[C@]43C)[C@@H]12	47.9	24.5	35.3	27.8	49.1	27.2	21.6	46.7	16.8	28.6
C=C(/C=C/c1ccccc1F)[C@@H]1CC[C@]2(C(=O)O)CC[C@]3(C)[C@H](CC[C@@H]4[C@@]5(C)CC[C@H](O)C(C)(C)[C@@H]5CC[C@]43C)[C@@H]12	25.1	22.6	31.7	27.7	23.2	24.5	21.8	42.1	15.4	29.7
C=C(/C=C/c1ccc(Br)cc1F)[C@@H]1CC[C@]2(C(=O)O)CC[C@]3(C)[C@H](CC[C@@H]4[C@@]5(C)CC[C@H](O)C(C)(C)[C@@H]5CC[C@]43C)[C@@H]12	> 50	33.6	33.7	29.7	> 50	33.5	26	43	22.4	32.5
C=C(/C=C/c1ccccc1C#N)[C@@H]1CC[C@]2(C(=O)O)CC[C@]3(C)[C@H](CC[C@@H]4[C@@]5(C)CC[C@H](O)C(C)(C)[C@@H]5CC[C@]43C)[C@@H]12	24.8	47	> 50	40.4	26.8	36.6	> 50	> 50	23.2	> 50
C=C(/C=C/c1ccccc1C)[C@@H]1CC[C@]2(C(=O)O)CC[C@]3(C)[C@H](CC[C@@H]4[C@@]5(C)CC[C@H](O)C(C)(C)[C@@H]5CC[C@]43C)[C@@H]12	25.9	25.9	31.5	28	22.8	29.7	28.1	33	19.1	26.8
C=C(/C=C/c1ccc(I)cc1)[C@@H]1CC[C@]2(C(=O)O)CC[C@]3(C)[C@H](CC[C@@H]4[C@@]5(C)CC[C@H](O)C(C)(C)[C@@H]5CC[C@]43C)[C@@H]12	> 50	33.3	41.2	32.2	> 50	30.7	> 50	> 50	16	> 50
C=C(/C=C/c1cccc(OC)c1)[C@@H]1CC[C@]2(C(=O)O)CC[C@]3(C)[C@H](CC[C@@H]4[C@@]5(C)CC[C@H](O)C(C)(C)[C@@H]5CC[C@]43C)[C@@H]12	25.6	39.6	44.1	25.2	30.6	34.6	41.4	> 50	4.6	40.1
C=C(/C=C/c1ccc(Cl)cc1)[C@@H]1CC[C@]2(C(=O)O)CC[C@]3(C)[C@H](CC[C@@H]4[C@@]5(C)CC[C@H](O)C(C)(C)[C@@H]5CC[C@]43C)[C@@H]12	29.2	38.5	> 50	25.8	33.1	39.5	46.3	> 50	5.4	45.4
C=C(/C=C/c1ccc(OC)cc1)[C@@H]1CC[C@]2(C(=O)O)CC[C@]3(C)[C@H](CC[C@@H]4[C@@]5(C)CC[C@H](O)C(C)(C)[C@@H]5CC[C@]43C)[C@@H]12	48.6	48.9	> 50	48.6	> 50	42.4	> 50	> 50	20.9	> 50
C=C(/C=C/C1CCCCC1)[C@@H]1CC[C@]2(C(=O)O)CC[C@]3(C)[C@H](CC[C@@H]4[C@@]5(C)CC[C@H](O)C(C)(C)[C@@H]5CC[C@]43C)[C@@H]12	43.6	> 50	> 50	> 50	45.7	15.2	> 50	> 50	8	> 50
C=C(/C=C/c1ccc(Br)cc1)[C@@H]1CC[C@]2(C(=O)O)CC[C@]3(C)[C@H](CC[C@@H]4[C@@]5(C)CC[C@H](O)C(C)(C)[C@@H]5CC[C@]43C)[C@@H]12	29.3	31.8	35.2	27	28.9	33.2	> 50	> 50	6.5	> 50

Source: ChEMBL document CHEMBL4828721, “Substituted dienes prepared from betulinic acid - Synthesis, cytotoxicity, mechanism of action, and pharmacological parameters” (Eur J Med Chem, 2021)
